Measured values as given in patent US20140357655A1, “SPIROINDOLINE DERIVATIVES AS GONADOTROPIN- RELEASING HORMONE RECEPTOR ANTAGONISTS” (Bayer Intellectual Property GmbH, priority 2012, published 2014).

Target: T1, human GnRH receptor (Homo sapiens, UniProt P30968)
T1 sequence (P30968 1-328): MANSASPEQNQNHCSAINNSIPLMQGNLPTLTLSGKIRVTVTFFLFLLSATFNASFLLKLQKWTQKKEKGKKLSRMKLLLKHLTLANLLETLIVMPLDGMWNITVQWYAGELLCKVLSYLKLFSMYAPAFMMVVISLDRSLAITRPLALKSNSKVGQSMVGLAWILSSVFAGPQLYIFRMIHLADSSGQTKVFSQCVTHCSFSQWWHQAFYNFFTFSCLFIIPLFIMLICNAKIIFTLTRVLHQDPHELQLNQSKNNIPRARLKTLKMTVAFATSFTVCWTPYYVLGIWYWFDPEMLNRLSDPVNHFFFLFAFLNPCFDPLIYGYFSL
Assay: IP-One HTRF assay with buserelin (at EC80) stimulation
Assay type: cell-based
Conditions: CHO cells stably expressing human GnRH receptor, read-out: Potency in IP-One HTRF assay, given as IC50
In short: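 Ten-point duplicate titrations (20 μM to 1 nM) were fitted by 4-parameter model to normalized 665/620 nm HTRF ratios, 0% = no compound, 100% = no agonist. Assay measured IP1 accumulation in human GnRH-R CHO cells stimulated 1 h at 37° C with EC80 buserelin, then lysed 1 h at 22° C.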

SMILES	IC50 [nM]
CC1N(S(=O)(=O)c2ccc(F)cc2)c2ccc(C(=O)NCc3ncc(F)cc3Cl)cc2C12CCOCC2 (centres unmarked) [Example 5, N-[(3-chloro-5-fluoropyridin-2-yl)methyl]-1-[(4-fluorophenyl)sulfonyl]-2-methyl-1,2,2′,3′,5′,6′-hexahydrospiro[indole-3,4′-pyran]-5-carboxamide]	345
CC1N(S(=O)(=O)c2ccc(F)cc2)c2ccc(C(=O)NCc3ccccn3)cc2C12CCOCC2 (centres unmarked) [Example 6, 1-[(4-fluorophenyl)sulfonyl]-2-methyl-N-(2-pyridylmethyl)-1,2,2′,3′,5′,6′-hexahydrospiro[indole-3,4′-pyran]-5-carboxamide]	6720
CC1N(S(=O)(=O)c2ccc(F)cc2)c2ccc(C(=O)NCc3ccc(F)cc3)cc2C12CCOCC2 (centres unmarked) [Example 7, N-(4-fluorobenzyl)-1-[(4-fluorophenyl)sulfonyl]-2-methyl-1,2,2′,3′,5′,6′-hexahydrospiro[indole-3,4′-pyran]-5-carboxamide]	1060
CC1N(S(=O)(=O)c2ccc(F)cc2)c2ccc(C(=O)NCc3ccccc3C#N)cc2C12CCOCC2 (centres unmarked) [Example 8, N-(2-cyanobenzyl)-1-[(4-fluorophenyl)sulfonyl]-2-methyl-1,2,2′,3′,5′,6′-hexahydrospiro[indole-3,4′-pyran]-5-carboxamide]	2510
CC1N(S(=O)(=O)c2ccc(F)cc2)c2ccc(C(=O)NCc3ccccc3S(C)(=O)=O)cc2C12CCOCC2 (centres unmarked) [Example 9, 1-[(4-fluorophenyl)sulfonyl]-N-(2-mesylbenzyl)-2-methyl-1,2,2′,3′,5′,6′-hexahydrospiro[indole-3,4′-pyran]-5-carboxamide]	4830
CC1N(S(=O)(=O)c2ccc(F)cc2)c2ccc(C(=O)Nc3cccc(S(C)(=O)=O)c3)cc2C12CCOCC2 (centres unmarked) [Example 10, 1-[(4-fluorophenyl)sulfonyl]-N-(3-mesylphenyl)-2-methyl-1,2,2′,3′,5′,6′-hexahydrospiro[indole-3,4′-pyran]-5-carboxamide]	1390
CC1N(S(=O)(=O)c2ccc(F)cc2)c2ccc(C(=O)Nc3cccc(S(=O)(=O)N(C)C)c3)cc2C12CCOCC2 (centres unmarked) [Example 11, N-[3-(N,N-dimethylsulfamoyl)phenyl]-1-[(4-fluorophenyl)sulfonyl]-2-methyl-1,2,2′,3′,5′,6′-hexahydrospiro[indole-3,4′-pyran]-5-carboxamide]	378
O=C(NCc1ccccc1Cl)c1ccc2c(c1)C1(CC[S+]([O-])CC1)C(C1CC1)N2S(=O)(=O)c1ccc(F)cc1 (centres unmarked) [Example 13, N-(2-Chlorobenzyl)-2-cyclopropyl-1-[(4-fluorophenyl)sulfonyl]-1,2,2′,3′,5′,6′-hexahydrospiro[indole-3,4′-thiopyran]-5-carboxamide 1′-oxide]	30
O=C(NCc1ncccc1C(F)(F)F)c1ccc2c(c1)C1(CCS(=O)(=O)CC1)C(C1CC1)N2S(=O)(=O)c1ccc(F)cc1 (centres unmarked) [Example 15, 2-cyclopropyl-1-[(4-fluorophenyl)sulfonyl]-N-{[3-(trifluoromethyl)pyridin-2-yl]methyl}-1,2,2′,3′,5′,6′-hexahydrospiro[indole-3,4′-thiopyran]-5-carboxamide 1′,1′-dioxide]	103
O=C(NCc1ccc(F)cc1Cl)c1ccc2c(c1)C1(CCS(=O)(=O)CC1)C(C1CC1)N2S(=O)(=O)c1ccc(F)cc1 (centres unmarked) [Example 16, N-(2-chloro-4-fluorobenzyl)-2-cyclopropyl-1-[(4-fluorophenyl)sulfonyl]-1,2,2′,3′,5′,6′-hexahydrospiro[indole-3,4′-thiopyran]-5-carboxamide 1′,1′-dioxide]	74
O=C(NCc1ncc(F)cc1Cl)c1ccc2c(c1)C1(CCS(=O)(=O)CC1)C(C1CC1)N2S(=O)(=O)c1ccc(F)cc1 (centres unmarked) [Example 17, N-[(3-chloro-5-fluoropyridin-2-yl)methyl]-2-cyclopropyl-1-[(4-fluorophenyl)sulfonyl]-1,2,2′,3′,5′,6′-hexahydrospiro[indole-3,4′-thiopyran]-5-carboxamide 1′,1′-dioxide]	184
